Reference: US7417044B2, “Tadalafil having a large particle size and a process for preparation thereof” (Teva Pharmaceutical Industries Ltd., priority 2005, dated 2008)
Values joined by “and” are separate entries in the source; they are usually repeats but may differ in a detail not shown here. Equal values may be shown once.

Assays:
[1] = Particle size of tadalafil by Malvern laser diffraction (Mastersizer S); type: physicochemical
From the text: Measurement and characterization of particle size distributions is known in the art. It is possible to compare samples of particulate tadalafil on the basis of individual points on a cumulative particle size distribution curve. The measurements are represented as d(0.X)=Y (where X and Y are Arabic numerals), each “d” describing an individual point on a cumulative PSD curve. The number “X” represents the percentage (number, volume, or weight) of particles in the population having a nominal size up to and including “Y”. Thus, d(0.9)=250μ is characteristic of a PSD in which 90% (number, volume, or weight) of the particles in a population have a nominal size of about 250μ or less (at least some particles having a nominal dimension of 250μ) and so forth. When PSD is determined by the well-know laser-diffraction method described herein, the d(0.X) measurement depicts a volume average. The particle size of tadalafil described herein was measured by Malvern Laser Diffraction using a Mastersizer S instrument. The measuring instrument was equipped with a small cell dispersion unit MS1 with a digital dispersion unit controller. The measurement was performed by using range lens 300RF (working range 0.05-900 mcm), beam length: 2.40 mm, presentation 3$$D (Fraunhofer), number of sweeps 4000, and speed rate 2300±10 rpm. The dilution medium was 0.1% w/v Span 80 in a saturated solution of tadalafil in cyclohexane. The measurement began after 10 seconds of recirculation, after the powder was added directly into the measurement cell filled with the dilution medium. According to the accepted rules of Good Manufacturing Procedures, a sample of tadalafil was measured after a successful blank measurement (% obscuration NMT 0.1%) was performed.

[2] = prior-art tadalafil of U.S. Pat. No. 6,821,975; cited from earlier work

CN1CC(=O)N2[C@H](c3ccc4c(c3)OCO4)c3[nH]c4ccccc4c3C[C@@H]2C1=O [tadalafil, (6R-trans)-6-(1,3-benzodioxol-5-yl)-2,3,6,7,12,12a-hexahydro-2-methyl-pyrazino[1′,2′:1,6]pyrido[3,4-b]indole-1,4-dione]
particle size, d(0.9) ([1]; Example 1, final dry material after industrial-scale crystallization from acetone/water with heating/cooling cycles): 60-500 microns
particle size, d(0.9) ([1]; Example 2, final dry material after crystallization from acetone/water with heating/cooling cycles): > 60 microns
particle size, d(0.9) ([1]; Example 3, after milling with micronizer, 50 mm, 4.0 bar feed air and 3.0 bar milling air): about 228.7 microns
particle size, d(0.9) ([1]; Example 4, after milling with micronizer, 50 mm, 2.0 bar feed air and 1.0 bar milling air): about 105.8 microns
particle size, d(0.9) ([1]; Example 5, after milling with Pin-Mill, 9.6 Kg/hr feed rate and 12,000 rpm milling speed): about 52.4 microns
particle size, d(0.9) ([1]; Example 6, after milling with Pin-Mill, 9.6 Kg/hr feed rate and 4500 rpm milling speed): about 202.7 microns
particle size, d(0.9) ([1]; starting sample before milling (Examples 3-6)): 584 microns and 538.6 microns and 553.5 microns
particle size of 90% of the particles [2]: less than 40 microns
